Legend:
Experiment in all cases: relative viability (nuclei count vs DMSO), 5 days (fraction); higher = more cells survive
[1] = tested on: UMC-11
Summary of the method: (§1)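 Relative viability divides the nuclei count in treated wells by that in vehicle wells. Lung cancer cell lines were seeded in 1536-well plates, dosed by pin tool the next day, and fixed and stained after 5 days in one step with final 0.05% Triton X-100, 1% formaldehyde and 1 ug/ml Hoechst. Dosing was a single drug or a fixed anchor-drug dose plus five library-drug doses (not always all listed) in √10 steps, and values are medians of duplicate plates imaged at 4×.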

[2] = tested on: Calu-6
Summary of the method: as §1

[3] = tested on: CAL-12T
Summary of the method: as §1

[4] = tested on: LK-2
Summary of the method: as §1

[5] = tested on: A-427
Summary of the method: as §1

[6] = tested on: NCI-H1734
Summary of the method: as §1

[7] = tested on: NCI-H1299
Summary of the method: as §1

[8] = tested on: NCI-H2009
Summary of the method: as §1

[9] = tested on: NCI-H1650
Summary of the method: as §1

[10] = tested on: IA-LM
Summary of the method: as §1

[11] = tested on: NCI-H1703
Summary of the method: as §1

[12] = tested on: EBC-1
Summary of the method: as §1

[13] = tested on: A549
Summary of the method: as §1

O=c1cc(-c2cccc3c2Sc2ccccc2S3)oc(N2CCOCC2)c1 + CS(=O)(=O)CCNCc1ccc(-c2ccc3ncnc(Nc4ccc(OCc5cccc(F)c5)c(Cl)c4)c3c2)o1 [Lapatinib] (partner 2 µM)
relative viability ([1]; first compound 0.08 µM): 1.02 | relative viability ([1]; first compound 0.253 µM): 1.28 | relative viability ([1]; first compound 0.8 µM): 1.21 | relative viability ([1]; first compound 2.53 µM): 0.78 | relative viability ([1]; first compound 8 µM): 1.29 | relative viability ([2]; first compound 0.08 µM): 1.16 | relative viability ([2]; first compound 0.253 µM): 1.16 | relative viability ([2]; first compound 0.8 µM): 1.03 | relative viability ([2]; first compound 2.53 µM): 1.07 | relative viability ([2]; first compound 8 µM): 1.15 | relative viability ([3]; first compound 0.08 µM): 0.501 | relative viability ([3]; first compound 0.253 µM): 0.646 | relative viability ([3]; first compound 0.8 µM): 0.595 | relative viability ([3]; first compound 2.53 µM): 0.551 | relative viability ([3]; first compound 8 µM): 0.564 | relative viability ([4]; first compound 0.08 µM): 0.86 | relative viability ([4]; first compound 0.253 µM): 1 | relative viability ([4]; first compound 0.8 µM): 0.997 | relative viability ([4]; first compound 2.53 µM): 0.918 | relative viability ([4]; first compound 8 µM): 1.21 | relative viability ([5]; first compound 0.08 µM): 1.06 | relative viability ([5]; first compound 0.253 µM): 1.05 | relative viability ([5]; first compound 0.8 µM): 1.08 | relative viability ([5]; first compound 2.53 µM): 0.868 | relative viability ([5]; first compound 8 µM): 1.12 | relative viability ([6]; first compound 0.08 µM): 1.07 | relative viability ([6]; first compound 0.253 µM): 1.55 | relative viability ([6]; first compound 0.8 µM): 1.12 | relative viability ([6]; first compound 2.53 µM): 0.79 | relative viability ([6]; first compound 8 µM): 1.51 | relative viability ([7]; first compound 0.08 µM): 0.972 | relative viability ([7]; first compound 0.253 µM): 1 | relative viability ([7]; first compound 0.8 µM): 0.997 | relative viability ([7]; first compound 2.53 µM): 0.975 | relative viability ([7]; first compound 8 µM): 0.96 | relative viability ([8]; first compound 0.08 µM): 0.879 | relative viability ([8]; first compound 0.253 µM): 0.893 | relative viability ([8]; first compound 0.8 µM): 0.876 | relative viability ([8]; first compound 2.53 µM): 0.895 | relative viability ([8]; first compound 8 µM): 0.823 | relative viability ([9]; first compound 0.08 µM): 0.687 | relative viability ([9]; first compound 0.253 µM): 0.917 | relative viability ([9]; first compound 0.8 µM): 0.717 | relative viability ([9]; first compound 2.53 µM): 0.84 | relative viability ([9]; first compound 8 µM): 0.847 | relative viability ([10]; first compound 0.08 µM): 1.16 | relative viability ([10]; first compound 0.253 µM): 0.806 | relative viability ([10]; first compound 0.8 µM): 0.693 | relative viability ([10]; first compound 8 µM): 1.2 | relative viability ([11]; first compound 0.08 µM): 0.886 | relative viability ([11]; first compound 0.253 µM): 1.45 | relative viability ([11]; first compound 0.8 µM): 0.94 | relative viability ([11]; first compound 2.53 µM): 1.1 | relative viability ([11]; first compound 8 µM): 0.971 | relative viability ([12]; first compound 0.08 µM): 0.201 | relative viability ([12]; first compound 0.253 µM): 0.191 | relative viability ([12]; first compound 0.8 µM): 0.196 | relative viability ([12]; first compound 2.53 µM): 0.204 | relative viability ([12]; first compound 8 µM): 0.202 | relative viability ([13]; first compound 0.08 µM): 1.04 | relative viability ([13]; first compound 0.253 µM): 1.23 | relative viability ([13]; first compound 0.8 µM): 1.19 | relative viability ([13]; first compound 2.53 µM): 0.87 | relative viability ([13]; first compound 8 µM): 0.995

O=c1cc(N2CCOCC2)oc2c(-c3cccc4c3sc3ccccc34)cccc12 + CC1(C)CCC(c2ccc(Cl)cc2)=C(CN2CCN(c3ccc(C(=O)NS(=O)(=O)c4ccc(N[C@H](CCN5CCOCC5)CSc5ccccc5)c(S(=O)(=O)C(F)(F)F)c4)cc3)CC2)C1 [Navitoclax] (partner 0.5 µM)
relative viability ([1]; first compound 0.01 µM): 0.302 | relative viability ([1]; first compound 0.03162 µM): 0.339 | relative viability ([1]; first compound 0.1 µM): 0.255 | relative viability ([1]; first compound 0.3162 µM): 0.333 | relative viability ([1]; first compound 1 µM): 0.343 | relative viability ([2]; first compound 0.01 µM): 0.795 | relative viability ([2]; first compound 0.03162 µM): 0.786 | relative viability ([2]; first compound 0.1 µM): 0.967 | relative viability ([2]; first compound 0.3162 µM): 0.86 | relative viability ([2]; first compound 1 µM): 0.933 | relative viability ([3]; first compound 0.01 µM): 1.47 | relative viability ([3]; first compound 0.03162 µM): 1.17 | relative viability ([3]; first compound 0.1 µM): 1.36 | relative viability ([3]; first compound 0.3162 µM): 1.45 | relative viability ([3]; first compound 1 µM): 1.16 | relative viability ([4]; first compound 0.01 µM): 0.882 | relative viability ([4]; first compound 0.03162 µM): 0.886 | relative viability ([4]; first compound 0.1 µM): 0.896 | relative viability ([4]; first compound 0.3162 µM): 0.874 | relative viability ([4]; first compound 1 µM): 1.07 | relative viability ([5]; first compound 0.01 µM): 0.937 | relative viability ([5]; first compound 0.03162 µM): 0.935 | relative viability ([5]; first compound 0.1 µM): 0.956 | relative viability ([5]; first compound 0.3162 µM): 0.866 | relative viability ([5]; first compound 1 µM): 0.959 | relative viability ([6]; first compound 0.01 µM): 0.921 | relative viability ([6]; first compound 0.03162 µM): 0.807 | relative viability ([6]; first compound 0.1 µM): 0.835 | relative viability ([6]; first compound 0.3162 µM): 0.708 | relative viability ([6]; first compound 1 µM): 0.851 | relative viability ([7]; first compound 0.01 µM): 1.02 | relative viability ([7]; first compound 0.03162 µM): 1.06 | relative viability ([7]; first compound 0.1 µM): 1.08 | relative viability ([7]; first compound 0.3162 µM): 1 | relative viability ([7]; first compound 1 µM): 1.04 | relative viability ([8]; first compound 0.01 µM): 1.14 | relative viability ([8]; first compound 0.03162 µM): 1.16 | relative viability ([8]; first compound 0.1 µM): 1.14 | relative viability ([8]; first compound 0.3162 µM): 1.19 | relative viability ([8]; first compound 1 µM): 1.05 | relative viability ([9]; first compound 0.03162 µM): 1.07 | relative viability ([9]; first compound 0.1 µM): 1.07 | relative viability ([9]; first compound 0.3162 µM): 1.47 | relative viability ([9]; first compound 1 µM): 1.07 | relative viability ([10]; first compound 0.01 µM): 0.909 | relative viability ([10]; first compound 0.03162 µM): 0.667 | relative viability ([10]; first compound 0.1 µM): 0.902 | relative viability ([10]; first compound 0.3162 µM): 0.561 | relative viability ([10]; first compound 1 µM): 0.876 | relative viability ([11]; first compound 0.01 µM): 1.34 | relative viability ([11]; first compound 0.03162 µM): 1.28 | relative viability ([11]; first compound 0.1 µM): 1.24 | relative viability ([11]; first compound 0.3162 µM): 1.07 | relative viability ([11]; first compound 1 µM): 1.01 | relative viability ([12]; first compound 0.01 µM): 0.469 | relative viability ([12]; first compound 0.03162 µM): 0.377 | relative viability ([12]; first compound 0.1 µM): 0.353 | relative viability ([12]; first compound 0.3162 µM): 0.408 | relative viability ([12]; first compound 1 µM): 0.406 | relative viability ([13]; first compound 0.01 µM): 1.22 | relative viability ([13]; first compound 0.03162 µM): 1.17 | relative viability ([13]; first compound 0.1 µM): 1.28 | relative viability ([13]; first compound 0.3162 µM): 1.23 | relative viability ([13]; first compound 1 µM): 1.2

CCN(CC)CCCCNc1ncc2cc(-c3cc(OC)cc(OC)c3)c(NC(=O)NC(C)(C)C)nc2n1 + CC1(C)CCC(c2ccc(Cl)cc2)=C(CN2CCN(c3ccc(C(=O)NS(=O)(=O)c4ccc(N[C@H](CCN5CCOCC5)CSc5ccccc5)c(S(=O)(=O)C(F)(F)F)c4)cc3)CC2)C1 [Navitoclax] (partner 0.5 µM)
relative viability ([1]; first compound 0.01 µM): 0.303 | relative viability ([1]; first compound 0.03162 µM): 0.293 | relative viability ([1]; first compound 0.1 µM): 0.318 | relative viability ([1]; first compound 0.3162 µM): 0.318 | relative viability ([1]; first compound 1 µM): 0.308 | relative viability ([2]; first compound 0.01 µM): 0.729 | relative viability ([2]; first compound 0.03162 µM): 0.946 | relative viability ([2]; first compound 0.1 µM): 1.03 | relative viability ([2]; first compound 0.3162 µM): 1.01 | relative viability ([2]; first compound 1 µM): 0.748 | relative viability ([3]; first compound 0.01 µM): 1.43 | relative viability ([3]; first compound 0.03162 µM): 1.12 | relative viability ([3]; first compound 0.1 µM): 1.22 | relative viability ([3]; first compound 0.3162 µM): 1.42 | relative viability ([3]; first compound 1 µM): 1.19 | relative viability ([4]; first compound 0.01 µM): 0.918 | relative viability ([4]; first compound 0.03162 µM): 0.841 | relative viability ([4]; first compound 0.1 µM): 0.8 | relative viability ([4]; first compound 0.3162 µM): 0.732 | relative viability ([4]; first compound 1 µM): 0.36 | relative viability ([5]; first compound 0.01 µM): 0.991 | relative viability ([5]; first compound 0.03162 µM): 1.03 | relative viability ([5]; first compound 0.1 µM): 1.11 | relative viability ([5]; first compound 0.3162 µM): 1.08 | relative viability ([5]; first compound 1 µM): 0.908 | relative viability ([6]; first compound 0.01 µM): 0.971 | relative viability ([6]; first compound 0.03162 µM): 0.863 | relative viability ([6]; first compound 0.1 µM): 0.824 | relative viability ([6]; first compound 0.3162 µM): 1.03 | relative viability ([6]; first compound 1 µM): 0.761 | relative viability ([7]; first compound 0.01 µM): 1.08 | relative viability ([7]; first compound 0.03162 µM): 1.01 | relative viability ([7]; first compound 0.1 µM): 1.08 | relative viability ([7]; first compound 0.3162 µM): 1.09 | relative viability ([7]; first compound 1 µM): 1.01 | relative viability ([8]; first compound 0.01 µM): 1.25 | relative viability ([8]; first compound 0.03162 µM): 1.14 | relative viability ([8]; first compound 0.1 µM): 1.21 | relative viability ([8]; first compound 0.3162 µM): 1.31 | relative viability ([8]; first compound 1 µM): 1.11 | relative viability ([9]; first compound 0.01 µM): 1.12 | relative viability ([9]; first compound 0.03162 µM): 1.03 | relative viability ([9]; first compound 0.1 µM): 1.17 | relative viability ([9]; first compound 0.3162 µM): 0.784 | relative viability ([9]; first compound 1 µM): 0.7 | relative viability ([10]; first compound 0.01 µM): 0.746 | relative viability ([10]; first compound 0.03162 µM): 0.882 | relative viability ([10]; first compound 0.1 µM): 0.969 | relative viability ([10]; first compound 0.3162 µM): 0.73 | relative viability ([10]; first compound 1 µM): 0.866 | relative viability ([11]; first compound 0.01 µM): 1.07 | relative viability ([11]; first compound 0.1 µM): 1.04 | relative viability ([11]; first compound 0.3162 µM): 1.32 | relative viability ([11]; first compound 1 µM): 0.925 | relative viability ([12]; first compound 0.01 µM): 0.339 | relative viability ([12]; first compound 0.03162 µM): 0.469 | relative viability ([12]; first compound 0.1 µM): 0.442 | relative viability ([12]; first compound 0.3162 µM): 0.357 | relative viability ([12]; first compound 1 µM): 0.37 | relative viability ([13]; first compound 0.01 µM): 1.16 | relative viability ([13]; first compound 0.03162 µM): 1.24 | relative viability ([13]; first compound 0.1 µM): 1.53 | relative viability ([13]; first compound 0.3162 µM): 1.23 | relative viability ([13]; first compound 1 µM): 1.07

— the supplement of paper PMC10307832
